Patent US12708630B2, “Combined therapy of 4′-thio-5-aza-2′-deoxycytidine and Venetoclax” (PINOTBIO, INC., priority 2021, dated 2026)
Read-outs that look alike come from different tables or passages of the source.

Legend:
[1] = tested on: p15 tumor suppressor gene; test: p15 tumor suppressor gene re-expression (RT-PCR) in MV4-11 cells; assay type: cell-based; details: for p15 mRNA re-expression: MV4-11 cell line
Description: Therefore, to determine the re-expression of tumor suppressor genes through epigenetic regulation mechanisms induced by DNMT1 inhibition upon Aza-T-dCyd (NTX-301) treatment, MV4-11 cells, an AML cell line, were treated with Aza-T-dCyd at different concentrations. […] Table 1 below compares the degree of p15 mRNA re-expression after DNMT1 inhibitor (Aza-T-dCyd/Decitabine) treatment in the MV4-11 cell line, an AML cell (fold increase from 0 nM is shown).

AML cell lines = test: Cell viability inhibition in AML cell lines; assay type: cell-based; details: various AML cell lines, FIG. 19
Description: The growth-inhibitory activity of Aza-T-dCyd, a DNMT1 inhibitor, was measured in leukemia cell lines to determine its inhibitory effect on cell proliferation.

H2AX, Chk1, p53 = test: DNA damage response markers; assay type: cell-based
[2] = Pharmacokinetic evaluation in Dog; assay type: in vivo; details: for AUC(0-inf) / AUC(0-t) / Cmax / half-life / Tmax: in vivo, Dog; for half-life: read-out: T½ (converted)
Description: Aza-T-dCyd was administered orally and intravenously at various concentrations to Mice, Rats and Dogs to determine the PK profile.

Molm13 Xenograft model = test: Molm13 Xenograft model; assay type: in vivo; details: oral 0.2-1.5 mg/kg
HL-60 AML xenograft = HL-60 AML xenograft model; assay type: in vivo; details: 2.0 mg/kg
[3] = tested on: ALL-Patient Derived Xenografts; test: ALL-Patient Derived Xenografts (PDX); assay type: in vivo; details: doses tolerated up to 1.5 mg/kg (0.5, 1, 1.5, 2 mg/kg tested)
Description: To determine the efficacy of Aza-T-dCyd in another indication, T-ALL, we evaluated the efficacy of Aza-T-dCyd in a patient-derived ALL animal model.
Aza-T-dCyd was administered at doses of 0.5, 1, 1.5, and 2 mg/kg in ALL-Patient Derived Xenografts (PDX), with T-dCyd (DNMT1 inhibitor) used as a comparative control.

GLP rat Toxicology study = assay type: in vivo, rats
Description: GLP-Tox studies have been conducted in rats and dogs, with 2 cycles of QD×5d at PO.
In the GLP rat Toxicology study, rats received 2.5, 5, and 10 mg/kg of Aza-T-dCyd (15, 30, and 60 mg/m2) per day.

[4] = Mouse AUC used for the human PK simulation; details: in vivo, mice, dose of 2.0 mg/kg
Description: The 96 mg/day must be divided by 3 or 4, resulting in 24 to 32 mg/day.

[5] = cited from earlier work
DNMT1 [6] = target: T1, DNMT1 (Homo sapiens, UniProt P26358); test: Western blotting of Molm13 xenograft cancer tissues, DNMT1; assay type: in vivo; parameters: endogenous in cells; details: after administration
DNMT1 [7] = target: T1, DNMT1; test: DNMT1 protein Western blotting in cancer cell lines; assay type: cell-based; parameters: endogenous in cells; host or cells: MV4-11, KG-1a, CCRF-CEM, NCI-H23, HCT-116, IGROV-1 (also HL-60, THP-1); details: for DNMT1 protein (Western blotting): AML cell lines MV4-11 and KG-1a
DNMT1 [8] = target: T1, DNMT1; test: DNMT1 expression in HL-60 xenograft tumor samples; assay type: in vivo, mice; parameters: tumor samples were collected on day 11 to determine the expression of DNMT1, DNMT3A, and DNMT3B; from tissue; host or cells: HL-60 xenograft tumour samples (mouse host); details: 2 mg/kg NTX-301 or 0.75 mg/kg Decitabine intraperitoneally, day 11
Description: As the efficacy of DNMT1 inhibitors correlates with their selective profile for targeting DNMT1 and the de novo methyltransferases DNMT3A and DNMT3B, we confirmed the expression of DNMT1, DNMT3A, and DNMT3B in the Aza-T-dCyd and Decitabine treated groups in this xenograft model (FIG. 27).
In the HL-60 xenograft mice model, 2 mg/kg of NTX-301 (Aza-T-dCyd) or 0.75 mg/kg of Decitabine were administered intraperitoneally, and then tumor samples were collected on day 11 to determine the expression of DNMT1, DNMT3A, and DNMT3B. […] On the other hand, the expression levels of DNMT3A and DNMT3B were different in the Aza-T-dCyd and Decitabine treatment groups.

T1 sequence (P26358 whole entry): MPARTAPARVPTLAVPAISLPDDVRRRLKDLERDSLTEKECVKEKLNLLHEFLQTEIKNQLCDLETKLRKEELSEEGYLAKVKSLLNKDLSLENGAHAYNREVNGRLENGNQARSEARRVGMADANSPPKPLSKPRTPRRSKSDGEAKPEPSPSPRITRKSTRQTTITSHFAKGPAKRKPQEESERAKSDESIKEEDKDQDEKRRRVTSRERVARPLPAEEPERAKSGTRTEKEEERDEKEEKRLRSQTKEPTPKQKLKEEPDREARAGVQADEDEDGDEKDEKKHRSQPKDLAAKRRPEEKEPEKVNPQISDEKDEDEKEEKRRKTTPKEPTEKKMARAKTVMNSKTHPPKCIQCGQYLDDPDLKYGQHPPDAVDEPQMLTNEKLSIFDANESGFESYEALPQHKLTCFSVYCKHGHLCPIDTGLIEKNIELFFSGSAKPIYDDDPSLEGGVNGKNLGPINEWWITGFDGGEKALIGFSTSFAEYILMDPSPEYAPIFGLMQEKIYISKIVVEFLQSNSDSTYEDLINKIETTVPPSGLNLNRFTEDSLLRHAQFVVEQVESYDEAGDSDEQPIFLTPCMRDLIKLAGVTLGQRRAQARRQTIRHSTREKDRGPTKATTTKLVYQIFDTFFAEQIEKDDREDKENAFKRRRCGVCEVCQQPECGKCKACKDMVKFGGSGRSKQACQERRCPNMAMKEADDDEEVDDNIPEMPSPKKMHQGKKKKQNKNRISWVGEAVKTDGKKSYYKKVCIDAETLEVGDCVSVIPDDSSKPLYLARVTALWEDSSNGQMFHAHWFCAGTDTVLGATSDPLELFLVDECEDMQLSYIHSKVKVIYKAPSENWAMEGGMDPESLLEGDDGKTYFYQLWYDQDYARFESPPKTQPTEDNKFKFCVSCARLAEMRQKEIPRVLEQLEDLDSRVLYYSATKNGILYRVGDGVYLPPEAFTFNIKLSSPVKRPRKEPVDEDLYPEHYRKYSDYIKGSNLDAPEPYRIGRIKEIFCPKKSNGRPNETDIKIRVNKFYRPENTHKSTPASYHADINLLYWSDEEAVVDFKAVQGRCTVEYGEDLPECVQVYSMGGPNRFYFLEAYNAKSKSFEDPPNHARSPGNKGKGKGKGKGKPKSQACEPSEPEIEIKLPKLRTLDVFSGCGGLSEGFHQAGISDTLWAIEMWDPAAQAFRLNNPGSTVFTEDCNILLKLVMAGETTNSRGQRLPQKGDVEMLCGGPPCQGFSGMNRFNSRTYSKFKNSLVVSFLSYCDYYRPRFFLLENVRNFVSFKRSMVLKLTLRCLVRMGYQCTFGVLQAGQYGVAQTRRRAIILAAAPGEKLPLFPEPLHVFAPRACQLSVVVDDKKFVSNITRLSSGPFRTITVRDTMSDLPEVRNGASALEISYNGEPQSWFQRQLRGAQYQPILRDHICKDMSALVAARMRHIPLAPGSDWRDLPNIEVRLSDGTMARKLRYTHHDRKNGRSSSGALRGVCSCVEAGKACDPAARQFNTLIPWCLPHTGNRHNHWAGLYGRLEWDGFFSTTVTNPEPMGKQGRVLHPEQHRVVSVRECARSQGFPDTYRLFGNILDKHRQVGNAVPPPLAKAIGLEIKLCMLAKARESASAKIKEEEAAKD

Nc1ncn([C@H]2CC(O)[C@@H](CO)S2)c(=O)n1 (stereo partly drawn) [Aza-T-dCyd, 4′-thio-5-aza-2′-deoxycytidine]
p15 mRNA re-expression ([1]; 6 nM): 1.4 ± 0.19 fold increase from 0 nM
p15 mRNA re-expression ([1]; 20 nM): 1.7 ± 0.38 fold increase from 0 nM
p15 mRNA re-expression ([1]; 60 nM): 2.6 ± 0.89 fold increase from 0 nM
p15 mRNA re-expression ([1]; 200 nM): 6.1 ± 0.86 fold increase from 0 nM
p15 upregulation compared with decitabine ([1]; MV4-11 cells): induced p15 upregulation better than decitabine
expression of p15 tumor suppressor gene (quantitative RT-PCR) ([1]; MV4-11 cells, 60 nM and 200 nM): significantly increased
p15 mRNA re-expression (RT-PCR) ([1]; MV4-11 cells, different concentrations, FIG. 14): strong re-expression of p15 mRNA
cell viability inhibition (AML cell lines): excellent cell viability inhibition
H2AX phosphorylation (H2AX, Chk1, p53): increased H2AX phosphorylation
expression of p53 protein (H2AX, Chk1, p53): increased expression of p53 protein
phosphorylation of Chk1 (H2AX, Chk1, p53): increased phosphorylation of Chk1
oral bioavailability ([2]; dogs): orally bioavailable
AUC(0-inf) ([2]; IV 0.33 mg/kg): 1130 ng·h/mL
AUC(0-t) ([2]; IV 0.33 mg/kg): 1050 ng·h/mL
Cmax ([2]; IV 0.33 mg/kg): 552 ng/mL
half-life ([2]; IV 0.33 mg/kg): 2.25 h
AUC(0-inf) ([2]; PO 0.15 mg/kg): 439 ng·h/mL
AUC(0-t) ([2]; PO 0.15 mg/kg): 409 ng·h/mL
Cmax ([2]; PO 0.15 mg/kg): 104 ng/mL
Tmax ([2]; PO 0.15 mg/kg): 1 h
half-life ([2]; PO 0.15 mg/kg): 1.86 h
AUC(0-inf) ([2]; PO 0.33 mg/kg): 880 ng·h/mL
AUC(0-t) ([2]; PO 0.33 mg/kg): 790 ng·h/mL
Cmax ([2]; PO 0.33 mg/kg): 210 ng/mL
Tmax ([2]; PO 0.33 mg/kg): 0.67 h
half-life ([2]; PO 0.33 mg/kg): 2.34 h
AUC(0-inf) ([2]; PO 0.67 mg/kg): 1760 ng·h/mL
AUC(0-t) ([2]; PO 0.67 mg/kg): 1570 ng·h/mL
Cmax ([2]; PO 0.67 mg/kg): 463 ng/mL
Tmax ([2]; PO 0.67 mg/kg): 0.83 h
half-life ([2]; PO 0.67 mg/kg): 2.26 h
AUC(0-inf) ([2]; PO 1.5 mg/kg): 3370 ng·h/mL
AUC(0-t) ([2]; PO 1.5 mg/kg): 3200 ng·h/mL
Cmax ([2]; PO 1.5 mg/kg): 882 ng/mL
Tmax ([2]; PO 1.5 mg/kg): 0.67 h
half-life ([2]; PO 1.5 mg/kg): 1.68 h
AUC(0-inf) ([2]; PO 3.0 mg/kg): 5620 ng·h/mL
AUC(0-t) ([2]; PO 3.0 mg/kg): 5380 ng·h/mL
Cmax ([2]; PO 3.0 mg/kg): 1670 ng/mL
Tmax ([2]; PO 3.0 mg/kg): 0.417 h
half-life ([2]; PO 3.0 mg/kg): 1.65 h
anti-cancer effect (Molm13 Xenograft model): potent anti-cancer effect in a dose-dependent manner
toxicity signals (body weight changes) (Molm13 Xenograft model): without any toxicity signals
tumor suppression (HL-60 AML xenograft): strong tumor suppression
efficacy in pediatric ALL PDX [3]: highly effective
Testicular toxicity, including decreased sperm count (GLP rat Toxicology study; rat): reversible upon discontinuation
Toxicity target organs (GLP rat Toxicology study; rat, 2.5, 5 and 10 mg/kg per day): bone marrow, thymus, heart, and testes
AUC [4]: 369 ng·h/mL
AUC value ([5]; 16 mg/day dose, NCI's Phase 1 trial): about 50 ng*h/mL
side effects ([5]; Phase 1a, solid tumors, dose approximately twice that of conventional decitabine): no significant side effects were observed
disease control rate ([5]; clinical trials, 32 mg/day dose): high disease control rate
MTD dose in Phase 1 ([5]; humans): 32 mg
DNMT1 in cancer tissues (Western blotting) (DNMT1 [6]): strongly inhibited DNMT1 and DNMT3B in a concentration-dependent manner
DNMT1 protein (Western blotting) (DNMT1 [7]; 20 nM): completely reduced DNMT1
DNMT1 protein (Western blotting) (DNMT1 [7]): reduced DNMT1 protein in a concentration-dependent manner
DNMT1 inhibition (DNMT1 [7]; CCRF-CEM (ALL cell line) cells, FIG. 12): inhibits DNMT1
DNMT1 inhibition (DNMT1 [7]; CCRF-CEM (ALL) and solid cancer cell line): can inhibit DNMT1 in a concentration-dependent manner
DNMT1 inhibition (DNMT1 [7]; KG-1a (AML cell line) cells, FIG. 11): inhibits DNMT1
DNMT1 inhibition (DNMT1 [7]; MV4-11 (AML cell line) cells, different concentrations, FIG. 10): inhibits DNMT1
DNMT1 intracellular protein expression (DNMT1 [7]; MV4-11, HL-60 and KG-1a cells, 72 hours): expression of DNMT1 was inhibited
DNMT1 inhibition (DNMT1 [7]; NCI-H23, HCT-116 and IGROV-1 cell lines, FIG. 13): inhibits DNMT1
DNMT1 inhibition (DNMT1 [7]; THP-1 cells, different concentrations): induced DNMT1 inhibition in a dose-dependent manner
DNMT1 expression in tumor samples (DNMT1 [8]): significantly reduced
